Data on three compounds can be found in paper PMC3105219 (Neuropharmacology, 2011).

One assay deals with mNET (Mus musculus, UniProt O55192). Type of assay: cell-based.
A further assay deals with mDAT (Mus musculus, UniProt Q61327). The assay can be described thus: Inhibition of [3H]dopamine uptake, wild type mDAT in transfected HeLa cells. Type of assay: cell-based.
The subject of another assay is DAT. To be noted: ref Carroll et al., 1995, cited from earlier work.
The next assay has as its system NET. To be noted: ref Carroll et al., 1995, cited from earlier work.
For a further assay, the target named is mDAT F155Y (Mus musculus, UniProt Q61327, F155Y). The assay can be described thus: Uptake inhibition, mDAT F155Y mutant. Format: cell-based. To be noted: for IC50: read-out: IC50 uptake inhibition, mDAT F155Y, mean ± SEM.
mDAT F155Y, sequence (Q61327 whole entry F155Y): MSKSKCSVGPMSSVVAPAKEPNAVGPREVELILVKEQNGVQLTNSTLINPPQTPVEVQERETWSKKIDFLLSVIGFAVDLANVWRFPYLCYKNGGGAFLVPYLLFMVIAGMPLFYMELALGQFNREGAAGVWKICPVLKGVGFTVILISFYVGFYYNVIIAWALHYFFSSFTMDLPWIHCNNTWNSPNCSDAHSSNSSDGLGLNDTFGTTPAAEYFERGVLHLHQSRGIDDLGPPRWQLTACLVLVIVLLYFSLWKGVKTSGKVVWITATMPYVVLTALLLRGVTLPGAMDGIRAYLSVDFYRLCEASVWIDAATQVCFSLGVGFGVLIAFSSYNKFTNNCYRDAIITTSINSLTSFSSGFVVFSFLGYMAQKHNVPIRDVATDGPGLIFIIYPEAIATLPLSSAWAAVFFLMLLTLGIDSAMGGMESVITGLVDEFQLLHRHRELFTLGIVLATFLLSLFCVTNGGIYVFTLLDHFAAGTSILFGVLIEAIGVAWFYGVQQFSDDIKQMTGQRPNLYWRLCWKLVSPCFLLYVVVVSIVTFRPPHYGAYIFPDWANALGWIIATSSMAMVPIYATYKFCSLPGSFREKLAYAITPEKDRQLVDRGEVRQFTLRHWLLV
Another assay deals with mNET Y151F (Mus musculus, UniProt O55192, Y151F). As to the kind of experiment: Uptake inhibition, mNET Y151F mutant. To be noted: for IC50: read-out: IC50 uptake inhibition, mNET Y151F, mean ± SEM. Type of assay: cell-based.
mNET Y151F, sequence (O55192 whole entry Y151F): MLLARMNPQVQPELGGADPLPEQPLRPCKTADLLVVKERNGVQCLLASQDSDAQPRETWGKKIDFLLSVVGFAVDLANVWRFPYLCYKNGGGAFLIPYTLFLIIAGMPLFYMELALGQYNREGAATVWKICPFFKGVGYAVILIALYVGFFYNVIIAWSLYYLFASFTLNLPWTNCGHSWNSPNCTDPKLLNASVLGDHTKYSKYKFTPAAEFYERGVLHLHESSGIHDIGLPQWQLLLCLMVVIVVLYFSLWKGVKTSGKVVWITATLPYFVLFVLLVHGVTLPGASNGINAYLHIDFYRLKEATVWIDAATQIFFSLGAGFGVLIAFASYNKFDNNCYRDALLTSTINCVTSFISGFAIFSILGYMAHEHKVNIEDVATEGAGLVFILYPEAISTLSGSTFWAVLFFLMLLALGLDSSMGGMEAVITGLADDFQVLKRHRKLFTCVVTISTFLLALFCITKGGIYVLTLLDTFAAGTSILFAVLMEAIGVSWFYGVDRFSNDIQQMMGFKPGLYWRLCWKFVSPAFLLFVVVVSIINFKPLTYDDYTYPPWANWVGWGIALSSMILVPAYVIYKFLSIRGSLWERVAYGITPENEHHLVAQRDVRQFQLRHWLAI
The next assay concerns the target mNET Y151E (Mus musculus, UniProt O55192, Y151E). As to the kind of experiment: Uptake inhibition, mNET Y151E mutant. Type of assay: cell-based. To be noted: read-out: RTI-113 IC50 [nM] uptake inhibition, mean ± SEM.
Another assay addresses mNET Y151T (Mus musculus, UniProt O55192, Y151T). As to the kind of experiment: Uptake inhibition, mNET Y151T mutant. Format: cell-based. To be noted: read-out: RTI-113 IC50 [nM] uptake inhibition, mean ± SEM.
In a further assay the target is mNET Y151I (Mus musculus, UniProt O55192, Y151I). The assay can be described thus: Uptake inhibition, mNET Y151I mutant. The conditions noted are these: read-out: RTI-113 IC50 [nM] uptake inhibition, mean ± SEM. Format: cell-based.
mNET Y151I, sequence (O55192 whole entry Y151I): as the sequence (O55192 whole entry Y151F) above, with F151I counted along it
A further assay concerns the target mNET Y151L (Mus musculus, UniProt O55192, Y151L). The assay can be described thus: Uptake inhibition, mNET Y151L mutant. The conditions noted are these: read-out: RTI-113 IC50 [nM] uptake inhibition, mean ± SEM. Type of assay: cell-based.
The next assay has as its target mNET Y151C (Mus musculus, UniProt O55192, Y151C). As to the kind of experiment: Uptake inhibition, mNET Y151C mutant. Format: cell-based. To be noted: read-out: RTI-113 IC50 [nM] uptake inhibition, mean ± SEM.
The target in a further assay is mNET Y151N (Mus musculus, UniProt O55192, Y151N). As to the kind of experiment: Uptake inhibition, mNET Y151N mutant. Type of assay: cell-based. The conditions noted are these: read-out: RTI-113 IC50 [nM] uptake inhibition, mean ± SEM.
mNET Y151N, sequence (O55192 whole entry Y151N): as the sequence (O55192 whole entry Y151F) above, with F151N counted along it
The next assay deals with mNET Y151K (Mus musculus, UniProt O55192, Y151K). The assay can be described thus: Uptake inhibition, mNET Y151K mutant. Format: cell-based. To be noted: read-out: RTI-113 IC50 [nM] uptake inhibition, mean ± SEM.
mNET Y151K, sequence (O55192 whole entry Y151K): as the sequence (O55192 whole entry Y151F) above, with F151K counted along it
Another assay concerns the target mNET Y151M (Mus musculus, UniProt O55192, Y151M). As to the kind of experiment: Uptake inhibition, mNET Y151M mutant. To be noted: read-out: RTI-113 IC50 [nM] uptake inhibition, mean ± SEM. Format: cell-based.
For a further assay, the target named is mNET Y151Q (Mus musculus, UniProt O55192, Y151Q). As to the kind of experiment: Uptake inhibition, mNET Y151Q mutant. The conditions noted are these: read-out: RTI-113 IC50 [nM] uptake inhibition, mean ± SEM. Format: cell-based.
mNET Y151Q, sequence (O55192 whole entry Y151Q): as the sequence (O55192 whole entry Y151F) above, with F151Q counted along it
The target of a further assay is mNET Y151G (Mus musculus, UniProt O55192, Y151G). As to the kind of experiment: Uptake inhibition, mNET Y151G mutant. Format: cell-based. To be noted: read-out: RTI-113 IC50 [nM] uptake inhibition, mean ± SEM.
mNET Y151G, sequence (O55192 whole entry Y151G): as the sequence (O55192 whole entry Y151F) above, with F151G counted along it
For the next assay, the target named is mNET Y151W (Mus musculus, UniProt O55192, Y151W). The assay can be described thus: Uptake inhibition, mNET Y151W mutant. To be noted: read-out: RTI-113 IC50 [nM] uptake inhibition, mean ± SEM. Type of assay: cell-based.
mNET Y151W, sequence (O55192 whole entry Y151W): as the sequence (O55192 whole entry Y151F) above, with F151W counted along it
The target in assay [1] is mNET-TM8m (A415T/L418I/S421A/A427S/A433V/D435E) (Mus musculus, UniProt O55192, A414T/A426S/A432V/D434E/L417I/S420A). As to the kind of experiment: Uptake inhibition, mNET-TM8m mutant. Type of assay: cell-based. The conditions noted are these: read-out: RTI-113 IC50 [nM] uptake inhibition, mean ± SEM.
mNET-TM8m (A415T/L418I/S421A/A427S/A433V/D435E), sequence (O55192 whole entry A414T/L417I/S420A/A426S/A432V/D434E): as the sequence (O55192 whole entry Y151F) above, with F151Y, A414T, L417I, S420A, A426S, A432V, D434E counted along it
For the next assay, the target named is mNET Y151D (Mus musculus, UniProt O55192, Y151D). As to the kind of experiment: Uptake inhibition, mNET Y151D mutant. Format: cell-based. The conditions noted are these: read-out: RTI-113 IC50 [nM] uptake inhibition, mean ± SEM.
mNET Y151D, sequence (O55192 whole entry Y151D): as the sequence (O55192 whole entry Y151F) above, with F151D counted along it
The next assay deals with mNET Y151S (Mus musculus, UniProt O55192, Y151S). As to the kind of experiment: Uptake inhibition, mNET Y151S mutant. Type of assay: cell-based. The conditions noted are these: read-out: RTI-113 IC50 [nM] uptake inhibition, mean ± SEM.
mNET Y151S, sequence (O55192 whole entry Y151S): as the sequence (O55192 whole entry Y151F) above, with F151S counted along it
Assay [2] deals with mNET-TM3m (Y151F/S159A/Y161H) (Mus musculus, UniProt O55192, S159A/Y151F/Y161H). As to the kind of experiment: Uptake inhibition, mNET-TM3m mutant. The conditions noted are these: read-out: RTI-113 IC50 [nM] uptake inhibition, mean ± SEM. Format: cell-based.
mNET-TM3m (Y151F/S159A/Y161H), sequence (O55192 whole entry Y151F/S159A/Y161H): as the sequence (O55192 whole entry Y151F) above, with S159A, Y161H counted along it
In assay [3] the target is mNET-TM6m (T306S/I315V/F316C/A321) (Mus musculus, UniProt O55192, A321V/F316C/I315V/T306S). The assay can be described thus: Uptake inhibition, mNET-TM6m mutant. Type of assay: cell-based. The conditions noted are these: read-out: RTI-113 IC50 [nM] uptake inhibition, mean ± SEM.
mNET-TM6m (T306S/I315V/F316C/A321), sequence (O55192 whole entry T306S/I315V/F316C/A321V): as the sequence (O55192 whole entry Y151F) above, with F151Y, T306S, I315V, F316C, A321V counted along it
A further assay concerns the target mNET Y151A (Mus musculus, UniProt O55192, Y151A). The assay can be described thus: Uptake inhibition, mNET Y151A mutant. Format: cell-based. The conditions noted are these: read-out: RTI-113 IC50 [nM] uptake inhibition, mean ± SEM.
The target in another assay is mNET Y151V (Mus musculus, UniProt O55192, Y151V). The assay can be described thus: Uptake inhibition, mNET Y151V mutant. Format: cell-based. The conditions noted are these: read-out: RTI-113 IC50 [nM] uptake inhibition, mean ± SEM.
mNET Y151V, sequence (O55192 whole entry Y151V): as the sequence (O55192 whole entry Y151F) above, with F151V counted along it

Structures are written as SMILES.

mNET, sequence (O55192 whole entry): as the sequence (O55192 whole entry Y151F) above, with F151Y counted along it
mDAT, sequence (Q61327 whole entry): as the sequence (Q61327 whole entry F155Y) above, with Y155F counted along it
mNET Y151E, sequence (O55192 whole entry Y151E): as the sequence (O55192 whole entry Y151F) above, with F151E counted along it
mNET Y151C, sequence (O55192 whole entry Y151C): as the sequence (O55192 whole entry Y151F) above, with F151C counted along it
mNET Y151A, sequence (O55192 whole entry Y151A): as the sequence (O55192 whole entry Y151F) above, with F151A counted along it
mNET Y151T, sequence (O55192 whole entry Y151T): as the sequence (O55192 whole entry Y151F) above, with F151T counted along it
mNET Y151L, sequence (O55192 whole entry Y151L): as the sequence (O55192 whole entry Y151F) above, with F151L counted along it
mNET Y151M, sequence (O55192 whole entry Y151M): as the sequence (O55192 whole entry Y151F) above, with F151M counted along it

The IC50 is the point on the concentration scale where inhibition reaches its midpoint. As to `COC(=O)[C@H]1[C@@H](OC(=O)c2ccccc2)C[C@@H]2CC[C@H]1N2C` [cocaine], the IC50 on mNET turned out to be 398 ± 66.8 nM; against mDAT, 318 ± 126 nM.

In the case of `COC(=O)[C@H]1[C@@H](c2ccc(Cl)cc2)C[C@H]2CC[C@H]1N2C` [RTI-31], the “potency in inhibiting DAT compared with cocaine” value in the assay with DAT (times more potent than cocaine) is 100 x. Besides, in the assay with NET (times more potent than cocaine), the “potency in inhibiting NET compared with cocaine” value was 100 x. The IC50 at mDAT F155Y came out at 1.65 ± 1.19 nM; at mNET Y151F it was 1.44 ± 0.67 nM.

`CN1[C@H]2CC[C@@H]1[C@@H](C(=O)Oc1ccccc1)[C@@H](c1ccc(Cl)cc1)C2` [RTI-113]: the IC50 at mNET Y151E is 770 ± 55.3 nM; at mNET Y151T, 115 ± 33.2 nM; on mNET Y151I it was 199 ± 65.1 nM; at mNET Y151L it was 342 ± 110 nM; on mNET Y151C, 211 ± 23 nM; at mNET Y151N it was 291 ± 51.5 nM. For the same compound, the IC50 on mNET Y151K worked out at 453 ± 71 nM; at mNET Y151M, 679 ± 174 nM; at mNET Y151Q it was 831 ± 69 nM; on mNET Y151G, 165 ± 28.4 nM; on mNET Y151W, 256 ± 66.9 nM; in assay [1] it was 269 ± 35.8 nM. Further, the IC50 on mNET Y151D was determined as 306 ± 105 nM; at mNET Y151S, 99.3 ± 43.8 nM; in assay [2] it was 1.89 ± 1.29 nM; in [3], 341 ± 77.2 nM; at mNET Y151A, 130 ± 15.1 nM; at mDAT F155Y, 13.4 ± 1.9 nM. The IC50 amounted to 12.1 ± 0.8 nM at mNET Y151F and 181 ± 81.1 nM on mNET Y151V. The “potency at inhibiting DAT relative to inhibiting NET” value in the assay with DAT (DAT over NET selectivity, stated in abstract) was 100 x. In addition, the “loss of potency to NET compared with RTI-31” value in the assay with NET (times less potent than RTI-31) was “about 100 times”. Further, on mDAT F155Y (mDAT-F155Y versus wild type mDAT), the decrease in potency was 20 fold. Besides, the “increase in potency for inhibition of substrate uptake” value at mNET Y151F (mNET-Y151F versus wild type mNET) was 14 fold.
